Experimental data published in article PMC8498006 (Advances in Redox Research, 2021).

Experiments:
[1] = molecular target: SARS-CoV-2 M^pro (MBP-tagged main protease) (Severe acute respiratory syndrome coronavirus 2, UniProt P0DTD1); test: biochemical; conditions: for suppressive effect on the protease activity at 20 µM: 20 µM phytochemical, 0.5 µM enzyme, 37°C 30 min
[2] = molecular target: T1, SARS-CoV-2 M^pro (MBP-cleaved) (Severe acute respiratory syndrome coronavirus 2, UniProt P0DTD1); test: Intact MS of M^pro after incubation with phytochemicals; assay type: binding; conditions: 0.5 µM enzyme; for covalent adduct on M^pro by intact MS: 1 µM phytochemical, 37°C 30 min
[3] = molecular target: T1, SARS-CoV-2 M^pro (MBP-cleaved); test: Enzyme activity of MBP-cleaved M^pro with EGCG/myricetin, with or without GSH; assay type: biochemical; conditions: 0.5 µM enzyme
[4] = molecular target: T1, SARS-CoV-2 M^pro (MBP-cleaved); test: Quinone detection on blotted membrane by redox-cycling; assay type: binding; conditions: 2.5 µM phytochemical, 1 mM GSH
[5] = molecular target: T1, SARS-CoV-2 M^pro (MBP-cleaved); test: Free thiols in the enzyme by biotin incorporation; conditions: iodoacetyl-LC-biotin labelling

Molecule | IC50 [1] [µM] | suppressive effect on the protease activity at 20 µM [1] | covalent adduct on M^pro by intact MS [2] | also measured
C=CCN=C=S [AITC, Allyl isothiocyanate] | 33.3 | – | – | –
S=C=NCc1ccccc1 [BITC, benzyl isothiocyanate] | 4.5 | considerably inhibited | – | –
S=C=NCCc1ccccc1 [PEITC, phenethyl isothiocyanate] | 14.2 | – | – | –
O=c1cc(-c2ccccc2)oc2cc(O)c(O)c(O)c12 [baicalein] | – | – | covalent adducts were not observed | –
OC[C@H]1O[C@@H](Oc2cc3c(O)cc(O)cc3[o+]c2-c2ccc(O)c(O)c2)[C@H](O)[C@@H](O)[C@@H]1O.[Cl-] [cyanidine-3-glucoside, Cyanidine-3-glucoside chloride] | – | did not show suppressive effect | – | –
O=c1c(O)c(-c2ccc(O)cc2)oc2c(O)c(O)cc(O)c12 [herbacetin] | 19.2 | – | covalent adducts were not observed | –
O=c1c(O)c(-c2cc(O)c(O)c(O)c2)oc2cc(O)cc(O)c12 [myricetin] | – | considerably inhibited | One or two molecule(s) | dose dependence of adduction by intact MS ([2]; 0–5 µM): dose-dependently observed; enzyme activity with increasing concentration ([3]; 0–5 µM, substrate reaction 15 min): decreased accordingly; enzyme activity loss in the presence of GSH ([3]; 2.5 µM phytochemical, 1 mM GSH, 30 min): canceled; quinone staining in the presence of GSH [4]: canceled; free thiols in the M^pro with increasing concentration [5]: decreased
COc1ccc(-c2cc(=O)c3c(O)c(OC)c(O[C@@H]4O[C@H](CO[C@@H]5O[C@@H](C)[C@H](O)[C@@H](O)[C@H]5O)[C@@H](O)[C@H](O)[C@H]4O)cc3o2)cc1 [pectolinarin] | – | did not show suppressive effect | – | –
Oc1cc(O)cc(/C=C/c2ccc(O)c(O)c2)c1 [piceatannol] | 13.8 | – | One or two molecule(s) | –
O=c1c(O)c(-c2ccc(O)c(O)c2)oc2cc(O)cc(O)c12 [quercetin] | – | did not show suppressive effect | – | –
C[C@@H]1O[C@@H](OC[C@H]2O[C@@H](Oc3c(-c4ccc(O)c(O)c4)oc4cc(O)cc(O)c4c3=O)[C@H](O)[C@@H](O)[C@@H]2O)[C@H](O)[C@H](O)[C@H]1O [rutin, quercetin-3-O-rutinoside] | – | did not show suppressive effect | – | –
O=c1c(O)cc([C@H]2Oc3cc(O)cc(O)c3C[C@H]2O)cc2c([C@H]3Oc4cc(O)cc(O)c4C[C@H]3O)cc(O)c(O)c12 [theaflavin] | 6.1 | considerably inhibited | One or two molecule(s) | –
myricitrin | – | – | covalent adducts were not observed | –
